Experimental data reported in paper PMC7489893, “A small molecule inhibitor of HER3: a proof-of-concept study” (Biochemical Journal, 2020).
Read-outs that look alike come from different tables or passages of the source.

Key:
HER2 kinase domain = molecular target: T1, HER2 kinase domain (Homo sapiens, UniProt P04626); test: biochemical; parameters: in vitro HER2 kinase inhibition assay at the Km for ATP (ThermoFisher); conditions: at Km for ATP; read-out: Activity against HER2, IC50
T1 construct: gene ERBB2; kinase domain, ThermoFisher in vitro kinase assay
Excerpt: Since the readout for HER3 function in cells required HER2 activity, it was critical to confirm HER2 inactivity of these compounds.

HER3 [1] = molecular target: T2, HER3 (Homo sapiens, UniProt P21860); test: DSF dose-response thermal shift; HDX-MS binding site mapping; parameters: gene ERBB3
T2 sequence (P21860 684-1020): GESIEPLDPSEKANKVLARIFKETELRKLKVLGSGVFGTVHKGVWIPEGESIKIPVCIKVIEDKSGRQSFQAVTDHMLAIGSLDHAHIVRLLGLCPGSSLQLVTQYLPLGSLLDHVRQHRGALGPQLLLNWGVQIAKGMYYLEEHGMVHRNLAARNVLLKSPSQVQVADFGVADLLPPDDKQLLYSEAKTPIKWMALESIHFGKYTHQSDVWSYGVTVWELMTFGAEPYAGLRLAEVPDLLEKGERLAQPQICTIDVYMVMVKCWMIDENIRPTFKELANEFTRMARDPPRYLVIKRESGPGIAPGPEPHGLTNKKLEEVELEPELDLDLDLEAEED

HER3 [2] = molecular target: T2, HER3; test: biochemical; parameters: gene ERBB3; HER3 kinase domain (residues G684-D1020); differential scanning fluorimetry with SYPRO Orange, HER3 Tm shift, single-compound deconvolution screen; conditions: read-out: ΔTm (°C) HER3 deconvolution screen
Procedure: Thermal shift assays were performed using a QuantStudio7 Flex Real-Time PCR instrument (Applied Biosystems, ThermoFischer Scientific) scanning from 15°C to 75°C in 0.5°C increments every 30 s after an initial incubation at 15°C for 1 min. Fluorescence was measured at the end of each 30 s period with an excitation wavelength of 470 nm and an emission wavelength of 620 nm. HER3 and HER2 kinase domain recombinant proteins were diluted in 50 mM Hepes pH 7.5, 150 mM NaCl, 5% glycerol and 1 mM DTT to a concentration of 1.5 μM and then incubated with the indicated concentration of compounds in a total reaction volume of 10 μl, with a final concentration of 2.5X SYPRO Orange (ThermoFisher Scientific) as fluorescence probe. […] Having established a robust screening platform, a total of 107 008 small molecule compounds were screened as mixtures of four compounds per well (a total of 26 752 wells) at 30 μM each in a primary library screen. […] In the second step of screening, hit pools of compounds were arrayed as individual compounds and 3119 compounds (2835 hits plus 284 compounds from failed wells from the primary screen) were assessed at 30 μM, using the same thermal shift assay settings as for the primary screen (0.3% DMSO as neutral controls reflecting the single compound use, 200 μM ATP/10 mM MgCl2 as positive controls) applying again a cut-off value of ΔTm > 3°C (Figure 1C). […]

HER2 = molecular target: T3, HER2 (Homo sapiens, UniProt P04626, M706A/M712L/Q711L); test: biochemical; parameters: differential scanning fluorimetry with SYPRO Orange, shift in HER2 kinase domain Tm (counter screen); conditions: counter screen
T3 construct: gene ERBB2; HER2 kinase domain (S703-G1029)
Procedure: Thermal shift assays were performed using a QuantStudio7 Flex Real-Time PCR instrument (Applied Biosystems, ThermoFischer Scientific) scanning from 15°C to 75°C in 0.5°C increments every 30 s after an initial incubation at 15°C for 1 min. Fluorescence was measured at the end of each 30 s period with an excitation wavelength of 470 nm and an emission wavelength of 620 nm. HER3 and HER2 kinase domain recombinant proteins were diluted in 50 mM Hepes pH 7.5, 150 mM NaCl, 5% glycerol and 1 mM DTT to a concentration of 1.5 μM and then incubated with the indicated concentration of compounds in a total reaction volume of 10 μl, with a final concentration of 2.5X SYPRO Orange (ThermoFisher Scientific) as fluorescence probe. […] We sought to identify compounds binding specifically to HER3. Since HER2 and HER3 are highly homologous EGFR family members, we took forward the 555 compounds identified as stabilising HER3, to be counter screened for HER2 binding. […] Compounds binding to HER2, i.e. inducing a shift in HER2 Tm over 2°C (3×SD) compared with the DMSO neutral control were disregarded (Supplementary Figure S2D). […] A differential scanning fluorimetry (DSF) assay compound screen identifies 428 HER3-preferential binders from a 107 008 compound library. (A) Overview of the screening strategy and hit rate for each step of the screening cascade. […] ApoHER3 (HER3 kinase domain with no ligand) was used as a control for all DSF analyses (mean of ApoHER3 Tm across the plates set at ΔTm = 0°C is indicated by the dash green line) and ΔTm values were calculated for each pool of compounds tested at 30 μM each (N = 1). Cut-off values of ΔTm>3°C and ΔTm < −5°C were used to designate hits (shown as dashed pink lines). The pool of compounds containing proof-of-concept compound AC3573 is circled. Gaps indicate the rare plate failures (three plates). Compounds from these plates were retested during the deconvolution screen. (C) Correlation of shift in HER3 Tm value induced by deconvoluted pool compounds tested at 30 μM between the two repeats of deconvolution screening. AC3573 and its three pool compounds are highlighted. (D) Dose-dependent analysis of thermal shifts induced by AC3573 compound tested at 1, 3, 10 and 30 μM in the HER3 potency screen. The change in HER3 Tm value (ΔTm), compared with ApoHER3 control, is reported as mean ± SD from N = 4 independent experiments. Representative thermal denaturation profiles of recombinant HER3 kinase domain, in the presence of 0.3% DMSO (Apo control), ATP/MgCl2 (ATP control) or AC3573 tested at 1, 3, 10 and 30 μM. (E) Dose-dependent analysis of thermal shifts induced by AC3573 compound tested at 1, 3, 10 and 30 μM in the HER2 counter screen. […]

HER3 [3] = molecular target: T2, HER3; test: biochemical; parameters: gene ERBB3; HER3 kinase domain (residues G684-D1020); differential scanning fluorimetry with SYPRO Orange, shift in HER3 kinase domain Tm
Procedure: Thermal shift assays were performed using a QuantStudio7 Flex Real-Time PCR instrument (Applied Biosystems, ThermoFischer Scientific) scanning from 15°C to 75°C in 0.5°C increments every 30 s after an initial incubation at 15°C for 1 min. Fluorescence was measured at the end of each 30 s period with an excitation wavelength of 470 nm and an emission wavelength of 620 nm. HER3 and HER2 kinase domain recombinant proteins were diluted in 50 mM Hepes pH 7.5, 150 mM NaCl, 5% glycerol and 1 mM DTT to a concentration of 1.5 μM and then incubated with the indicated concentration of compounds in a total reaction volume of 10 μl, with a final concentration of 2.5X SYPRO Orange (ThermoFisher Scientific) as fluorescence probe. […] Hit compounds stabilising HER3 were then evaluated for their relative binding affinity in a dose–response thermal shift assay at 1, 3, 10 and 30 μM (Supplementary Figure S2C). […] The proof-of-concept compound was confirmed as a HER3 binder inducing a shift in HER3 Tm of over 3°C with the dose–response indicating an estimated IC50 of 4 μM (Figure 1D and Supplementary Table S2). Near neighbours of those 109 hits were selected and 663 new compounds were screened in duplicate for their relative potency at 1, 3, 10 and 30 μM by thermal shift assay. From those, 446 compounds passed the selection criteria, i.e. induced shift in HER3 Tm > 3°C below 10 μM (data not shown). Figure 1. A differential scanning fluorimetry (DSF) assay compound screen identifies 428 HER3-preferential binders from a 107 008 compound library. (A) Overview of the screening strategy and hit rate for each step of the screening cascade. […] ApoHER3 (HER3 kinase domain with no ligand) was used as a control for all DSF analyses (mean of ApoHER3 Tm across the plates set at ΔTm = 0°C is indicated by the dash green line) and ΔTm values were calculated for each pool of compounds tested at 30 μM each (N = 1). Cut-off values of ΔTm>3°C and ΔTm < −5°C were used to designate hits (shown as dashed pink lines). The pool of compounds containing proof-of-concept compound AC3573 is circled. Gaps indicate the rare plate failures (three plates). Compounds from these plates were retested during the deconvolution screen. (C) Correlation of shift in HER3 Tm value induced by deconvoluted pool compounds tested at 30 μM between the two repeats of deconvolution screening. AC3573 and its three pool compounds are highlighted. (D) Dose-dependent analysis of thermal shifts induced by AC3573 compound tested at 1, 3, 10 and 30 μM in the HER3 potency screen. The change in HER3 Tm value (ΔTm), compared with ApoHER3 control, is reported as mean ± SD from N = 4 independent experiments. […]

[4] = read-out: ΔTm (°C) HER3 potency screen

## NS(=O)(=O)c1cccc(Nc2cc(-c3c[nH]c4ccccc34)ncn2)c1 [AC3573]
HER2 kinase domain
  IC50: > 10 µM
HER3 [1]
  IC50: ~4 µM
HER3 [2]
  ΔTm at 30 µM: 3.65 ± 0.25 °C
HER2; 1 uM
  ΔTm at 1 µM: -0.75 ± 0.18 °C
HER2; 3 uM
  ΔTm at 3 µM: 0.48 ± 0.52 °C
HER2; 10 uM
  ΔTm at 10 µM: 1.56 ± 0.26 °C
HER2; 30 uM
  ΔTm at 30 µM: 1.95 ± 0.25 °C
HER3 [3]; 3 uM, potency screen
  ΔTm at 3 µM: 1.27 ± 0.51 °C
HER3 [3]; 30 uM, potency screen
  ΔTm at 30 µM: 3.2 ± 0.24 °C
HER3 [3]; [4]
  ΔTm at 1 µM: -1.34 ± 0.48 °C
  ΔTm at 10 µM: 3.28 ± 0.62 °C
